Results taken from patent publication US7763602B2, “Pyrrole derivatives as antimycobacterial compounds” (priority 2002, dated 2010).
Converted amounts (≈) assume the structure as drawn.

test system: M. tuberculosis clinical isolates, resistant; assay: microbe, parasite or virus in culture; assay type: cell-based, Mycobacterium tuberculosis; conditions: Mycobacterium tuberculosis, read-out: MIC (μg/ml) M. tuberculosis Resistant (n = 26)

Structure (SMILES) | MIC [µg/mL]
COc1ccccc1N1CCN(Cc2cc(-c3ccc(Cl)cc3)n(-c3ccc(Cl)cc3)c2C)CC1 [Compound No. 2, 1-{[1,5-bis(4-chlorophenyl)-2-methylpyrrol-3-yl]methyl}-4-(2-methoxyphenyl) piperazine] | 0.25 to 1 (≈ 0.494 to 1.97 µM)
Cc1c(CN2CCN(c3ncccn3)CC2)cc(-c2ccc(Cl)cc2)n1-c1ccc(Cl)cc1 [compound 5, 1-{[1,5-bis(4-chlorophenyl)-2-methylpyrrol-3-yl]methyl}-4-(2-pyrimidyl) piperazine] | 1 to 2 (≈ 2.09 to 4.18 µM)

same assay, conditions: Mycobacterium tuberculosis, read-out: MIC (μg/ml) against Clinical isolates Resistant

Structure (SMILES) | MIC [µg/mL]
Cc1c(CN2CCN(c3cccc(C(F)(F)F)c3)CC2)cc(-c2ccc(Cl)cc2)n1-c1ccc(F)cc1F [compound 46, 1-{[1-(2,4-difluorophenyl)-5-(4-chlorophenyl)-2-methylpyrrol-3-yl]methyl}-4-(3-trifluoromethylphenyl)piperazine] | 4 to 16 (≈ 7.33 to 29.3 µM)
COc1ccccc1N1CCN(Cc2cc(-c3ccc(Cl)cc3)n(-c3ccc(Cl)cc3)c2C)CC1 [Compound No. 2, 1-{[1,5-bis(4-chlorophenyl)-2-methylpyrrol-3-yl]methyl}-4-(2-methoxyphenyl) piperazine] | 0.25 to 1 (≈ 0.494 to 1.97 µM)
Cc1c(CN2CCN(c3ccc(F)cc3)CC2)cc(-c2ccccc2)n1-c1ccc(F)cc1F [compound 51, 1-{[1-(2,4-difluorophenyl)-2-methyl-5-phenylpyrrol-3-yl]methyl}-4-(4-fluorophenyl)piperazine] | > 16
Cc1cc(CN2CCN(c3ccccn3)CC2)c(-c2ccccc2)n1-c1ccc(F)cc1F [compound 58, 1-{[1-(2,4-difluorophenyl)-5-methyl-2-phenylpyrrol-3-yl]methyl}-4-(2-pyridyl) piperazine] | 8 to 16 (≈ 18 to 36 µM)
Cc1c(CN2CCN(c3ccc(F)cc3)CC2)cc(-c2ccc(Cl)cc2)n1-c1ccc(Cl)cc1 [Compound No. 1, 1-{[1,5-bis(4-chlorophenyl)-2-methylpyrrol-3-yl]methyl}-4-(4-fluorophenyl) piperazine] | 2 to 4 (≈ 4.04 to 8.09 µM)
Cc1c(CN2CCN(c3ccccn3)CC2)cc(-c2ccc(Cl)cc2)n1-c1ccc(F)cc1F [compound 47, 1-{[1-(2,4-difluorophenyl)-5-(4-chlorophenyl)-2-methylpyrrol-3-yl]methyl}-4-(2-pyridyl)piperazine] | 1 to 4 (≈ 2.09 to 8.35 µM)
CO[C@H]1/C=C/O[C@@]2(C)Oc3c(C)c(O)c4c(O)c(c(/C=N/N5CCN(C)CC5)c(O)c4c3C2=O)NC(=O)/C(C)=C\C=C\[C@H](C)[C@H](O)[C@@H](C)[C@@H](O)[C@@H](C)[C@H](OC(C)=O)[C@@H]1C [Rifampicin, reference compound] | 4 to 16 (≈ 4.86 to 19.4 µM)
Cc1c(CN2CCN(c3ncccn3)CC2)cc(-c2ccc(Cl)cc2)n1-c1ccc(Cl)cc1 [compound 5, 1-{[1,5-bis(4-chlorophenyl)-2-methylpyrrol-3-yl]methyl}-4-(2-pyrimidyl) piperazine] | 0.5 to 2 (≈ 1.05 to 4.18 µM)

same assay, conditions: Table I; agar dilution

Structure (SMILES) | MIC (μg/ml) against Clinical isolates Resistant [µg/mL]
Cc1cc(CN2CCN(c3cccc(C(F)(F)F)c3)CC2)c(-c2ccccc2)n1NC(=O)c1cnccn1 [compound 33, N-(3-{[4-(3-trifluoromethylphenyl)piperazinyl]methyl}-5-methyl-2-phenylpyrrolyl)pyrazin-2-ylcarboxamide] | 4.0 to 8.0
Cc1c(CN2CCN(c3ccccn3)CC2)cc(-c2ccc(Cl)cc2)n1-c1cccc2ccccc12 [compound 61, 1-{[5-(4-chlorophenyl)-2-methyl-1-naphthylpyrrol-3-yl]methyl}-4-(2-pyridyl) piperazine] | 4.0 to 8.0
COc1ccccc1N1CCN(Cc2cc(C)n(NC(=O)c3cnccn3)c2-c2ccccc2)CC1 [compound 32, N-(3-{[4-(2-methoxyphenyl)piperazinyl]methyl}-5-methyl-2-phenylpyrrolyl) pyrazin-2-ylcarboxamide] | >16.0
Cc1c(CN2CCN(C(c3ccccc3)c3ccccc3)CC2)cc(-c2ccccc2)n1NC(=O)c1cnccn1 [compound 30, N-(3-{[4-(diphenylmethyl)piperazinyl]methyl}-2-methyl-5-phenylpyrrolyl)-pyrazin-2-ylcarboxamide] | 4.0 to 16.0
Cc1c(CN2CCN(Cc3ccc4c(c3)OCO4)CC2)cc(-c2ccc(Cl)cc2)n1-c1cccc2ccccc12 [compound 62, 5-[(4-{[5-(4-chlorophenyl)-2-methyl-1-naphthylpyrrol-3-yl]methyl}-piperazinyl)methyl]-2H-benzo[d]1,3-dioxolane] | >16.0
Cc1c(CN2CCN(c3ccc(F)cc3)CC2)cc(-c2ccccc2)n1NC(=O)c1cnccn1 [compound 25, N-(3-{[4-(4-fluorophenyl)piperazinyl]methyl}-2-methyl-5-phenylpyrrolyl)pyrazin-2-ylcarboxamide] | 4.0 (≈ 8.5 µM)
CCC(CO)n1c(C)c(CN2CCSCC2)c(CO)c1-c1ccccc1 (stereo not shown) [compound 90, 2-[3-(hydroxymethyl)-5-methyl-2-phenyl-4-(1,4-thiazaperhydroin-4-ylmethyl)-pyrrolyl]butan-1-ol] | >16.0
Cc1c(CN2CCS(=O)(=O)CC2)cc(-c2ccccc2)n1-c1ccccc1 [compound 88] | 2.0 to 8.0
Cc1c(CN2CCN(c3ccc(F)cc3)CC2)cc(-c2ccccc2)n1NC(=O)c1ccncc1 [compound 11, N-(3-{[4-(4-fluorophenyl)piperazinyl]methyl}-2-methyl-5-phenylpyrrolyl)-4-pyridylcarboxamide] | 0.5 to 2.0
COc1ccccc1N1CCN(Cc2cc(-c3ccc(Cl)cc3)n(-c3cccc4ccccc34)c2C)CC1 [compound 59, 1-{[5-(4-chlorophenyl)-2-methyl-1-naphthylpyrrol-3-yl]methyl}-4-(2-methoxyphenyl)piperazine] | >16.0
Cc1c(CN2CCSCC2)cc(-c2ccccc2)n1NC(=O)c1ccncc1 [compound 21, N-[2-methyl-5-phenyl-3-(1,4-thiazaperhydroin-4-ylmethyl)pyrrolyl]-4-pyridyl carboxamide] | 1.0 to 4.0
Cc1cc(CN2CCN(c3ccc(F)cc3)CC2)c(-c2ccc(Cl)cc2)n1NC(=O)c1cnccn1 [compound 41, N-(2-(4-chlorophenyl)-3-{[4-(4-fluorophenyl)piperazinyl]methyl}-5-methylpyrrolyl)pyrazin-2-ylcarboxamide] | >16.0
Cc1c(CN2CCN(Cc3ccccc3)CC2)cc(-c2ccccc2)n1NC(=O)c1ccncc1 [compound 15, N-(2-methyl-5-phenyl-3-{[4-benzylpiperazinyl]methyl}pyrrolyl)-4-pyridylcarboxamide] | 4.0 to 8.0
Cc1cc(CN2CCN(c3cccc(C(F)(F)F)c3)CC2)c(-c2ccccc2)n1NC(=O)c1ccncc1 [Compound No. 23, N-(3-{[4-(3-trifluoromethylphenyl)piperazinyl]methyl}-5-methyl-2-phenylpyrrolyl)-4-pyridylcarboxamide] | 0.25 to 1.0
Cc1cc(CN2CCN(c3cccc(C(F)(F)F)c3)CC2)c(-c2ccc(Cl)cc2)n1NC(=O)c1cnccn1 [compound 43, N-(2-(4-chlorophenyl)-3-{[4-(3-trifluoromethylphenyl)piperazinyl]methyl}-5-methylpyrrolyl)pyrazin-2-ylcarboxamide] | >16.0
Cc1c(CN2CCN(c3cccc(C(F)(F)F)c3)CC2)cc(-c2ccc(Cl)cc2)n1-c1cccc2ccccc12 [compound 60, 1-{[5-(4-chlorophenyl)-2-methyl-1-naphthylpyrrol-3-yl]methyl}-4-(3-trifluoromethylphenyl)piperazine] | 4.0 to 16.0
COc1ccccc1N1CCN(Cc2cc(-c3ccccc3)n(NC(=O)c3ccncc3)c2C)CC1 [compound 13, N-(3-{[4-(2-methoxyphenyl)piperazinyl]methyl}-2-methyl-5-phenylpyrrolyl)-4-pyridylcarboxamide] | 1.0 to 2.0
Cc1c(CN2CCN(C(=O)c3ccco3)CC2)cc(-c2ccc(Cl)cc2)n1-c1ccc(Cl)cc1 [compound 7, 4-{[1,5-bis(4-chlorophenyl)-2-methylpyrrol-3-yl]methyl}piperazinyl-2-furyl-ketone] | 2.0 to 4.0
Cc1cc(CN2CCN(C(c3ccccc3)c3ccccc3)CC2)c(-c2ccccc2)n1NC(=O)c1cnccn1 [compound 36, N-(3-{[4-(diphenylmethyl)piperazinyl]methyl}-5-methyl-2-phenylpyrrolyl) pyrazin-2-ylcarboxamide] | 1.0 to 4.0
Cc1c(CN2CCN(c3ccccn3)CC2)cc(-c2ccccc2)n1NC(=O)c1ccncc1 [compound 14, N-(3-{[4-(2-pyridyl)piperazinyl]methyl}-2-methyl-5-phenylpyrrolyl)-4-pyridylcarboxamide] | 4.0 to 8.0
Cc1c(CN2CCN(C(c3ccccc3)c3ccccc3)CC2)cc(-c2ccc(Cl)cc2)n1-c1ccc(F)cc1F [compound 48, 1-{[1-(2,4-difluorophenyl)-5-(4-chlorophenyl)-2-methylpyrrol-3-yl]methyl}-4-(4-diphenylmethyl)piperazine] | >16.0
Cc1c(CN2CCN(c3cccc(C(F)(F)F)c3)CC2)cc(-c2ccccc2)n1NC(=O)c1cnccn1 [compound 27, N-(3-{[4-(3-trifluoromethylphenyl)piperazinyl]methyl}-2-methyl-5-phenylpyrrolyl)pyrazin-2-ylcarboxamide] | 8.0 (≈ 15.4 µM)
Cc1c(CN2CCN(Cc3ccc4c(c3)OCO4)CC2)cc(-c2ccc(Cl)cc2)n1-c1ccc(F)cc1F [compound 50, 5-[(4-{[1-(2,4-difluorophenyl)-5-(4-chlorophenyl)-2-methylpyrrol-3-yl]-methyl}-piperazinyl)methyl]-2H-benzo[d]1,3-dioxolane] | 4.0 to 16.0
COc1ccccc1N1CCN(Cc2cc(C)n(-c3cccc4ccccc34)c2-c2ccc(Cl)cc2)CC1 [compound 63, 1-{[2-(4-chlorophenyl)-5-methyl-1-naphthylpyrrol-3-yl]methyl}-4-(2-methoxyphenyl)piperazine] | 4.0 to 16.0
